The values that follow come from ChEMBL document CHEMBL1152905, “Identification and characterization of a selective radioligand for melanin-concentrating hormone 1-receptor (MCH1R)” (Bioorg Med Chem Lett, 2009).

The target in data set [1] is T1, Melanin-concentrating hormone receptor 1 (Homo sapiens, UniProt Q99705). Briefly: Displacement of[125I]MCH from human MCH1R expressed in CHO cells. The data set is classed as cell-based.
Data set [2] can be described thus: Lipophilicity, log D at pH 7.4. As to conditions: buffer. The data set is classed as physicochemical.
In data set [3] the target is T1, Melanin-concentrating hormone receptor 1. Briefly: Displacement of [35S] 4-(1-(3,4-difluorophenyl)-2-(ethyl(3-(6-fluoro-3H-spiro[isobenzofuran-1,4'-piperidine]-1'-yl)propyl)amino)-2-oxoethyl)-3-oxopiperazine-1-sulfonic acid from human MCH1R.
Data set [4] has as its target Melanin-concentrating hormone receptor 1 (Mus musculus, UniProt Q8JZL2). Put plainly: Displacement of [35S] 4-(1-(3,4-difluorophenyl)-2-(ethyl(3-(6-fluoro-3H-spiro[isobenzofuran-1,4'-piperidine]-1'-yl)propyl)amino)-2-oxoethyl)-3-oxopiperazine-1-sulfonic acid from mouse MCH1R. In general terms: In a radioligand displacement assay an active substance lowers the binding of a labelled ligand.

In data set [5] the target is Melanin-concentrating hormone receptor 2 (Homo sapiens, UniProt Q969V1). Briefly: Displacement of [35S] 4-(1-(3,4-difluorophenyl)-2-(ethyl(3-(6-fluoro-3H-spiro[isobenzofuran-1,4'-piperidine]-1'-yl)propyl)amino)-2-oxoethyl)-3-oxopiperazine-1-sulfonic acid from human MCH2R.
Chain of Melanin-concentrating hormone receptor 2 (Q969V1 whole entry): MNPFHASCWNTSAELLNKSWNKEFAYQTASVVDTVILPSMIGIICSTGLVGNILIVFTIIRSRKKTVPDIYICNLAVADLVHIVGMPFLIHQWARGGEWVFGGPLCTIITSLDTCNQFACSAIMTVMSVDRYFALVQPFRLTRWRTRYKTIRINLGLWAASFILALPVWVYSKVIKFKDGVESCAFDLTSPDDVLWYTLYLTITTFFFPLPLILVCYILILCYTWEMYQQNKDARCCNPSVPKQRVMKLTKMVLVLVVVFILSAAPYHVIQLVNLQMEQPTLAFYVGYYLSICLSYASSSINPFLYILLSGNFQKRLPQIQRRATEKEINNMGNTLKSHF
The target in data set [6] is T1, Melanin-concentrating hormone receptor 1. Briefly: Binding affinity to human MCH1R expressed in CHO cells by scintillation counting per mg of protein. The data set is classed as cell-based.
The target of data set [7] is Melanin-concentrating hormone receptor 1 (Mus musculus) (UniProt Q8JZL2). Put plainly: Binding affinity to MCH1R in wild type mouse coronal slice […] at 500 pM by radioactivity study. As to conditions: tested as the 35S-labelled form.
Chain of Melanin-concentrating hormone receptor 1 (Mus musculus) (Q8JZL2 whole entry): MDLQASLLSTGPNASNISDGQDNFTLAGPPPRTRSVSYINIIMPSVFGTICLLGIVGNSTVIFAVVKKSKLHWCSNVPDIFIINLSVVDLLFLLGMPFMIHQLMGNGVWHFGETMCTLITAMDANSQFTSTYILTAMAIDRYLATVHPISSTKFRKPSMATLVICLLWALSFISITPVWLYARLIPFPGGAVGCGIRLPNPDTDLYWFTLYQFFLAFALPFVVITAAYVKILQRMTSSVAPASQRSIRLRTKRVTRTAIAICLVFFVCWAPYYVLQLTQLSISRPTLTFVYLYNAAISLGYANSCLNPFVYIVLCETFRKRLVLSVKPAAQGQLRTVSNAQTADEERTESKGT

Active and inactive are the calls of the source. The calls are words filed in the database; no cut-off is given here. Bridge positions count the residues as written; N and C are the ends. Peptide text beside a SMILES is read from it. * marks the point of attachment. X2 = NC(=O)CC[C@@H](CN[C@@H](Cc1ccc(O)c(I)c1)C(=O)O)N*; X1 = NC(=O)CC[C@@H](CN[C@@H](Cc1ccc(O)cc1)C(=O)O)N*

T1 sequence (Q99705 whole entry): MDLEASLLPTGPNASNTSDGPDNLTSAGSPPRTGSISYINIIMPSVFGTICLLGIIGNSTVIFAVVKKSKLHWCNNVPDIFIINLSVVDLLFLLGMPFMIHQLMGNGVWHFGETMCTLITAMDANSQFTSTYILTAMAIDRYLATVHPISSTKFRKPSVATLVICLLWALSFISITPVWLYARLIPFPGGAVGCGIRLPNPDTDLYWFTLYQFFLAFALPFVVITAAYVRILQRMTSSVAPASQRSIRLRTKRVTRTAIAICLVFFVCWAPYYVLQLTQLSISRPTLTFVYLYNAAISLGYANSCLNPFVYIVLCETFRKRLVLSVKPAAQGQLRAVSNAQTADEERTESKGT
Chain of Melanin-concentrating hormone receptor 1 (Mus musculus, UniProt Q8JZL2) (Q8JZL2 whole entry): as the sequence (Q8JZL2 whole entry) above

In general, IC50 refers to the concentration that inhibits the measured activity by half. Higher therefore signals lower potency. For the compound `CCN(CCCN1CCC2(CC1)OCc1ccc(F)cc12)C(=O)C(c1ccc(F)c(F)c1)N1CCN(C(=O)OC(C)(C)C)CC1=O` (stereo in doubt; 5b), the IC50 in data set [1] amounted to 145 nM.
The term logD denotes lipophilicity at a set pH, counting ionised and neutral species. A high value points to higher lipophilicity. In data set [1], `CN(CCCN1CCC2(CC1)OCc1ccccc12)C(=O)C(c1ccc(F)c(F)c1)N1CCCC1=O` (centres undefined) yielded an IC50 of 2.7 nM. The compound also had a logD in data set [2] of 2.2.
In turn, `CCN(CCCN1CCC2(CC1)OCc1ccc(F)cc12)C(=O)C(c1ccc(F)c(F)c1)N1CCNCC1=O` (centres undefined) showed an IC50 in data set [1] of 0.87 nM.
Still for that read-out and setting: the figure for `CCN(CCCN1CCC2(CC1)OCc1ccc(F)cc12)C(=O)C(c1ccc(F)c(F)c1)N1CCN(C(=O)OC(C)(C)C)CC1=O` (stereo in doubt; 5a) is 0.24 nM.
For orientation: Ki means the dissociation constant of the complex between target and ligand, obtained from inhibition or displacement. Read a high Ki as weaker binding. `CSCC[C@@H]1NC(=O)[C@@H](NC(=O)[C@H](CCCNC(=N)N)NC(=O)[C@H](CC(C)C)NC(=O)[C@H](CCSC)NC(=O)[C@H](CC(=O)O)NC(=O)[C@H](Cc2ccccc2)NC(=O)[C@@H](N)CC(=O)O)CSSC[C@@H](C(=O)N[C@@H](Cc2c[nH]c3ccccc23)C(=O)N[C@@H](CCC(N)=O)CN[C@@H](Cc2ccc(O)cc2)C(=O)O)NC(=O)[C@@H]2CCCN2C(=O)[C@H](CCCNC(=N)N)NC(=O)[C@H](Cc2ccccc2)NC(=O)[C@H](C(C)C)NC(=O)[C@H](CCCNC(=N)N)NC(=O)CNC(=O)[C@H](CC(C)C)NC1=O` (H-DFDMLRCMLGRVFRPCW-X1; disulfide 7-16): the Ki in data set [3] was 0.034 nM; in data set [4] it was 0.052 nM; in data set [5] it was 1.6 nM.
In the case of `CCN(CCCN1CCC2(CC1)OCc1ccc(F)cc12)C(=O)C(c1ccc(F)c(F)c1)N1CCN([35S](C)(=O)=O)CC1=O` (centres undefined), the Ki is 0.5 nM in data set [4] and greater than 9700 nM in data set [5].
`CCN(CCCN1CCC2(CC1)OCc1ccc(F)cc12)C(=O)C(c1ccc(F)c(F)c1)N1CCN(S(C)(=O)=O)CC1=O` (centres undefined) yielded a Bmax in data set [6] (tested as the 35S-labelled form) of 23 pmol. Moreover, the outcome in data set [7] was Active.
Compound `CSCC[C@@H]1NC(=O)[C@@H](NC(=O)[C@H](CCCNC(=N)N)NC(=O)[C@H](CC(C)C)NC(=O)[C@H](CCSC)NC(=O)[C@H](CC(=O)O)NC(=O)[C@H](Cc2ccccc2)NC(=O)[C@@H](N)CC(=O)O)CSSC[C@@H](C(=O)N[C@@H](Cc2c[nH]c3ccccc23)C(=O)N[C@@H](CCC(N)=O)CN[C@@H](Cc2ccc(O)c(I)c2)C(=O)O)NC(=O)[C@@H]2CCCN2C(=O)[C@H](CCCNC(=N)N)NC(=O)[C@H](Cc2ccccc2)NC(=O)[C@H](C(C)C)NC(=O)[C@H](CCCNC(=N)N)NC(=O)CNC(=O)[C@H](CC(C)C)NC1=O` (H-DFDMLRCMLGRVFRPCW-X2; disulfide 7-16) came in with a Bmax in data set [6] (tested as the 125I-labelled form) of 24 pmol.
In the case of `CCN(CCCN1CCC2(CC1)OCc1ccc(F)cc12)C(=O)C(c1ccc(F)c(F)c1)N1CCCC1=O` (centres undefined), in data set [1], the IC50 was 0.71 nM.
